Measurements from US20250382274A1, “COMPOSITIONS AND METHODS FOR THE TREATMENT OF PARKINSON'S AND GAUCHER DISEASE” (CHILDREN'S HOSPITAL MEDICAL CENTER, priority 2024, published 2025).

Tests used:
[1] = biological target: T1, GCase in healthy human fibroblasts (Homo sapiens, UniProt P04062); assay: EC50 cell-based assay for GCase, healthy human fibroblasts (GCase cell); conditions: 5 days compound treatment (0-20 μM)
T1 construct: Healthy human fibroblasts (GCase cell); endogenous in cells; host or cells: healthy human fibroblasts
T1 sequence (P04062 40-536): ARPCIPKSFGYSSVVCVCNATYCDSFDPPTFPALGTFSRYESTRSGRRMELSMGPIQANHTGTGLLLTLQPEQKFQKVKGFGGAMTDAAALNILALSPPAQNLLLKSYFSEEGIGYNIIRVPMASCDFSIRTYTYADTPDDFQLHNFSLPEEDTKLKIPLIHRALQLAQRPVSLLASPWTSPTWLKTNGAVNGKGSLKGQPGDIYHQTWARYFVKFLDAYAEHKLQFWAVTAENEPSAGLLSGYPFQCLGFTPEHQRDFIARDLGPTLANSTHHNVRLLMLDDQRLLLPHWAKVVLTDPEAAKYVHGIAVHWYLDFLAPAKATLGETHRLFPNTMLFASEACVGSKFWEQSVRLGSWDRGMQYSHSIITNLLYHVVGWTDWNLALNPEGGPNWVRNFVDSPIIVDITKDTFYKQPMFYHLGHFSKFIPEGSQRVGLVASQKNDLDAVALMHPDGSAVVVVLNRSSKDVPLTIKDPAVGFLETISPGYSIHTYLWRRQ
Procedure: In cell assays, GCase activity measurements were carried out on harvested cell pellets on the 5th day of Compound treatment. Healthy human fibroblasts (GCase cell), mutant N370/ΔGG (GCase N370S) or L444P/L444P (GCase L444P) were incubated with the Compound (0-20 μM) for 5 days with 15% fetal bovine serum (FBS) in Dulbecco's Modified Eagle Medium (DMEM) in 100 mm culture dishes. Fresh Medium with Compound were replaced every other day. On the 5th day of Compound treatment, harvested cell pellets were lysed with 1% Na-taurocholate (Tc) and 1% Triton X-100 (Tx), and mixed with the reaction buffer which contained 0.025 mM Citric phosphate buffer (pH 5.6), 0.25% Tc/Tx and 4 mM 4-MuGlu, then incubated at 37° C. for 1 hour. EC50 represents the concentration of a Compound that produces 50% of its maximal response in the cell-based GCase activity assay.
(§1) GCase activities were determined fluorometrically with 4-MuGlu. The relative fluorescence unit (RFU) of 4-MuGlu standard curve is generated with the plate reader (M5, Molecular Devise) as 1 n mole=56500 RFU. The human mutant Gaucher fibroblasts were purchased from Coriell Institute (Camden, NJ): N370/ΔGG (Cat #: GM00852) and L444P/L444P (cat #: GM00877)

[2] = biological target: T2, GCase (purified enzyme, Velaglucerase alfa, VPRIV) (Homo sapiens, UniProt P04062); assay: GCase AC50 enzyme activity assay; assay type: biochemical; conditions: pH 5.6, 4-MuGlu substrate, compounds 0-40 μM
T2 construct: purchased Shire Human Genetic Therapies, Cambridge, MA
T2 sequence (P04062 40-536): T1 sequence (P04062 40-536)
Procedure: An in vitro enzyme assay was performed through a dose response curve of Compounds (0-40 μM) with purified enzyme (Velaglucerase alfa, VPRIV®, Shire Human Genetic Therapies, Cambridge, MA) in citric phosphate [0.025 mM] buffer (pH 5.6) where 4-MuGlu [4 mM] was the substrate. Compounds were pre-incubated with the enzyme for 40 minutes at room temperature prior to substrate addition, and then incubated at 37° C. for 1 hour. AC50 represents the concentration of a Compound that produces 50% of its maximal response in the in vitro GCase activity assay.
as §1

Row | Structure (SMILES) | EC50 [1] [µM] | AC50 [2] [µM]
1 | O=C(NCC1CCO1)c1cccc2c1CN(C(=O)Nc1ccc(C(F)(F)F)cc1)C2 (centres unmarked) [Compound 40, N4-(oxetan-2-ylmethyl)-N2-[4-(trifluoromethyl)phenyl]isoindoline-2,4-dicarboxamide] | < 10 | < 10
2 | O=C(NC1CCN(CC(F)(F)F)CC1)c1nc2cc(F)cc(C(=O)NCC3CCO3)c2o1 (centres unmarked) [Compound 29, 5-fluoro-N7-(oxetan-2-ylmethyl)-N2-(1-(2,2,2-trifluoroethyl)piperidin-4-yl)benzo[d]oxazole-2,7-dicarboxamide] | – | 10 to 100
3 | O=C(Nc1ccc(Cl)cc1)c1nc2cc(F)cc(C(=O)NCC3CCO3)c2o1 (centres unmarked) [Compound 21, N2-(4-chlorophenyl)-5-fluoro-N7-((oxetan-2-yl)methyl)benzo[d]oxazole-2,7-dicarboxamide] | < 10 | < 10
4 | COc1ccc(NC(=O)c2nc3cc(F)cc(C(=O)NCC4CCO4)c3o2)cc1 (centres unmarked) [Compound 13, 5-fluoro-N2-(4-methoxyphenyl)-N7-(oxetan-2-ylmethyl)-1,3-benzoxazole-2,7-dicarboxamide] | < 10 | < 10
5 | COc1ccc(NC(=O)c2nc3cc(F)cc(C(=O)NCC4CCCO4)c3o2)cc1 (centres unmarked) [Compound 48, 5-fluoro-N2-(4-methoxyphenyl)-N7-(tetrahydrofuran-2-ylmethyl)-1,3-benzoxazole-2,7-dicarboxamide] | < 10 | < 10
6 | COc1ccc(NC(=O)Cc2nnc(NCC3CCCO3)c3ccccc23)cc1 (centres unmarked) [Compound 11, 2-(1-((tetrahydrofuran-2-yl)methylamino)phthalazin-4-yl)-N-(4-methoxyphenyl)acetamide] | < 10 | < 10
7 | CN(C)Cc1ccc(NC(=O)c2nc3cccc(C(=O)NCC4CCCO4)c3o2)cc1 (centres unmarked) [Compound 9, N2-(4-((dimethylamino)methyl)phenyl)-N7-((tetrahydrofuran-2-yl)methyl)benzo[d]oxazole-2,7-dicarboxamide] | < 10 | < 10
8 | O=C(Nc1ccc(CN2CCOCC2)cc1)c1nc2cccc(C(=O)NCC3CCO3)c2o1 (centres unmarked) [Compound 16, N2-[4-(morpholinomethyl)phenyl]-N7-(oxetan-2-ylmethyl)-1,3-benzoxazole-2,7-dicarboxamide] | – | < 10
9 | O=C(Nc1ccc(Br)cc1)c1cc2cccc(C(=O)NCC3CCCO3)c2o1 (centres unmarked) [Compound 3, N2-(4-bromophenyl)-N7-((tetrahydrofuran-2-yl)methyl)benzofuran-2,7-dicarboxamide] | < 10 | < 10
10 | COc1ccc(NC(=O)c2nc3cc(F)cc(C(=O)NCC4CCO4)c3o2)c(Cl)c1 (centres unmarked) [Compound 45, N2-(2-chloro-4-methoxyphenyl)-5-fluoro-N7-(oxetan-2-ylmethyl)benzo[d]oxazole-2,7-dicarboxamide] | < 10 | < 10
11 | COc1ccc(NC(=O)c2nc3c(F)ccc(C(=O)NCC4CCO4)c3o2)cc1 (centres unmarked) [Compound 15, 4-fluoro-N2-(4-methoxyphenyl)-N7-(oxetan-2-ylmethyl)-1,3-benzoxazole-2,7-dicarboxamide] | – | < 10
12 | O=C(NC1CCOCC1)c1nc2cc(F)cc(C(=O)NCC3CCO3)c2o1 (centres unmarked) [Compound 19, 5-fluoro-N2-(tetrahydro-2H-pyran-4-yl)-N7-((oxetan-2-yl)methyl)benzo[d]oxazole-2,7-dicarboxamide] | < 10 | < 10
13 | O=C(NC1CCC(F)(F)CC1)c1nc2cc(F)cc(C(=O)NCC3CCO3)c2o1 (centres unmarked) [Compound 28, N2-(4,4-difluorocyclohexyl)-5-fluoro-N7-(oxetan-2-ylmethyl)benzo[d]oxazole-2,7-dicarboxamide] | < 10 | 10 to 100
14 | COc1ccc(NC(=O)c2ncc(CC(=O)NCC3CCO3)o2)cc1 (centres unmarked) [Compound 50, N-(4-methoxyphenyl)-5-(2-((oxetan-2-ylmethyl)amino)-2-oxoethyl)oxazole-2-carboxamide] | < 10 | < 10
15 | COc1ccc(NC(=O)c2nc3cc(F)cc(C(=O)NCC4CCO4)c3o2)cc1F (centres unmarked) [Compound 14, 5-fluoro-N2-(3-fluoro-4-methoxy-phenyl)-N7-(oxetan-2-ylmethyl)-1,3-benzoxazole-2,7-dicarboxamide] | – | < 10

Results, then the compound that gave them:

Row | EC50 [1] [µM] | AC50 [2] [µM] | Structure (SMILES)
16 | < 10 | < 10 | CC(C)(Oc1ccc(F)cc1C(=O)NCC1CCO1)C(=O)NC1CCC(F)(F)CC1 (centres unmarked) [Compound 38, 2-[2-[(4,4-difluorocyclohexyl)amino]-1,1-dimethyl-2-oxo-ethoxy]-5-fluoro-N-(oxetan-2-ylmethyl)benzamide]
17 | < 10 | < 10 | CC(C)(Oc1ccc(F)cc1C(=O)NCC1CCO1)C(=O)NCCN1CCOCC1 (centres unmarked) [Compound 27, 2-[1,1-dimethyl-2-(2-morpholinoethylamino)-2-oxo-ethoxy]-5-fluoro-N-(oxetan-2-ylmethyl)benzamide]
18 | < 10 | < 10 | CC(C)(Oc1ccccc1C(=O)NCC1CCO1)C(=O)NC1CCN(CC(F)F)CC1 (centres unmarked) [Compound 17, 2-[2-[[1-(2,2-difluoroethyl)-4-piperidyl]amino]-1,1-dimethyl-2-oxo-ethoxy]-N-(oxetan-2-ylmethyl)benzamide]
19 | < 10 | < 10 | CC(C)(Oc1ccccc1C(=O)NCC1CCCO1)C(=O)NC1CCCCC1 (centres unmarked) [Compound 36, 2-[2-(cyclohexylamino)-1,1-dimethyl-2-oxo-ethoxy]-N-(tetrahydrofuran-2-ylmethyl)benzamide]
20 | < 10 | < 10 | COc1ccc(NC(=O)N2Cc3cccc(C(=O)NCC4CCO4)c3C2)cc1Cl (centres unmarked) [Compound 42, N2-(3-chloro-4-methoxyphenyl)-N4-(oxetan-2-ylmethyl) isoindoline-2,4-dicarboxamide]
21 | < 10 | < 10 | CN(CC1CCCO1)C(=O)c1ccccc1OCC(=O)Nc1ccc(Br)cc1 (centres unmarked) [Compound 1, 2-((4-bromophenylcarbamoyl)methoxy)-N-((tetrahydrofuran-2-yl)methyl)-N-methylbenzamide]
22 | < 10 | < 10 | COc1ccc(NC(=O)c2cc3cccc(C(=O)NCC4CCCO4)c3o2)cc1 (centres unmarked) [Compound 5, N7-((tetrahydrofuran-2-yl)methyl)-N2-(4-methoxyphenyl)benzofuran-2,7-dicarboxamide]
23 | < 10 | < 10 | COc1ccc2[nH]c(COc3ccccc3C(=O)NCC3CCCO3)nc2c1 (centres unmarked) [Compound 12, 2-((5-methoxy-1H-benzo[d]imidazol-2-yl)methoxy)-N-((tetrahydrofuran-2-yl)methyl)benzamide]
24 | < 10 | < 10 | COc1ccc(NC(=O)N2Cc3cccc(C(=O)NCC4CCO4)c3C2)cc1 (centres unmarked) [Compound 30, N2-(4-methoxyphenyl)-N4-((oxetan-2-yl)methyl)isoindoline-2,4-dicarboxamide]
25 | < 10 | < 10 | CN1CCC(NC(=O)C(C)(C)Oc2ccc(F)cc2C(=O)NCC2CCO2)C(F)(F)C1 (centres unmarked) [Compound 24, 2-(2-(3,3-difluoro-1-methylpiperidin-4-ylcarbamoyl)propan-2-yloxy)-5-fluoro-N-((oxetan-2-yl)methyl)benzamide]
26 | – | < 10 | CC(C)(Oc1ccc(F)cc1C(=O)NCC1CCO1)C(=O)Nc1ccc(OC(F)F)cc1 (centres unmarked) [Compound 31, 2-((1-((4-(difluoromethoxy)phenyl)amino)-2-methyl-1-oxopropan-2-yl)oxy)-5-fluoro-N-(oxetan-2-ylmethyl)benzamide]
